Reference: the NIST ThermoML archive (doi:10.1007/s10765-010-0766-0)
Values joined by “and” are separate entries in the source; they are usually repeats but may differ in a detail not shown here. Identical values can stand only once. ± gives the expanded uncertainty stated by the source.

Test: molar heat capacity at constant volume; wn = mass fraction of the nth substance listed
Details: Liquid, Vacuum adiabatic calorimetry, w2 = 0.4981

FC(F)C(F)(F)F [pentafluoroethane] + FCF
molar heat capacity at constant volume (277.15 K, 11982 kPa): 66.66 ± 3 J/K/mol | molar heat capacity at constant volume (278.15 K, 12826 kPa): 66.08 ± 3 J/K/mol | molar heat capacity at constant volume (279.15 K, 13669 kPa): 66.51 ± 3 J/K/mol | molar heat capacity at constant volume (280.15 K, 14512 kPa): 66.73 ± 3 J/K/mol | molar heat capacity at constant volume (281.15 K, 15355 kPa): 66.15 ± 3 J/K/mol | molar heat capacity at constant volume (282.15 K, 16198 kPa): 66.44 ± 3 J/K/mol | molar heat capacity at constant volume (283.15 K, 17040 kPa): 65.86 ± 3 J/K/mol | molar heat capacity at constant volume (284.15 K, 17881 kPa): 67.75 ± 3.1 J/K/mol | molar heat capacity at constant volume (285.15 K, 18722 kPa): 66.22 ± 3 J/K/mol | molar heat capacity at constant volume (286.15 K, 19563 kPa): 66.08 ± 3 J/K/mol | molar heat capacity at constant volume (287.15 K, 20403 kPa): 66.15 ± 3 J/K/mol | molar heat capacity at constant volume (288.15 K, 21239 kPa): 65.93 ± 3 J/K/mol | molar heat capacity at constant volume (289.15 K, 22077 kPa): 67.1 ± 3.1 J/K/mol | molar heat capacity at constant volume (291.15 K, 23750 kPa): 66.88 ± 3 J/K/mol | molar heat capacity at constant volume (292.15 K, 24585 kPa): 66.81 ± 3 J/K/mol | molar heat capacity at constant volume (293.15 K, 25420 kPa): 65.64 ± 3 J/K/mol | molar heat capacity at constant volume (294.15 K, 26254 kPa): 66.37 ± 3 J/K/mol | molar heat capacity at constant volume (295.15 K, 27085 kPa): 65.28 ± 2.9 J/K/mol | molar heat capacity at constant volume (296.15 K, 27917 kPa): 67.31 ± 3.1 J/K/mol | molar heat capacity at constant volume (297.15 K, 8118 kPa): 66.88 ± 3 J/K/mol | molar heat capacity at constant volume (297.15 K, 28747 kPa): 66.22 ± 3 J/K/mol | molar heat capacity at constant volume (298.15 K, 29575 kPa): 66.01 ± 3 J/K/mol | molar heat capacity at constant volume (299.15 K, 9422 kPa): 68.48 ± 3.1 J/K/mol | molar heat capacity at constant volume (300.15 K, 10072 kPa): 69.35 ± 3.1 J/K/mol | molar heat capacity at constant volume (300.15 K, 10089 kPa): 66.22 ± 3 J/K/mol | molar heat capacity at constant volume (301.15 K, 10723 kPa): 68.99 ± 3.1 J/K/mol | molar heat capacity at constant volume (301.15 K, 10737 kPa): 69.93 ± 3.1 J/K/mol | molar heat capacity at constant volume (302.15 K, 11374 kPa): 69.2 ± 3.1 J/K/mol | molar heat capacity at constant volume (302.15 K, 11385 kPa): 67.31 ± 3.1 J/K/mol | molar heat capacity at constant volume (303.15 K, 12024 kPa): 69.2 ± 3.1 J/K/mol | molar heat capacity at constant volume (303.15 K, 12032 kPa): 68.7 ± 3.1 J/K/mol | molar heat capacity at constant volume (304.15 K, 12672 kPa): 68.91 ± 3.1 J/K/mol | molar heat capacity at constant volume (304.15 K, 12680 kPa): 68.77 ± 3.1 J/K/mol | molar heat capacity at constant volume (305.15 K, 13320 kPa): 69.57 ± 3.1 J/K/mol | molar heat capacity at constant volume (305.15 K, 13327 kPa): 69.06 ± 3.1 J/K/mol | molar heat capacity at constant volume (306.15 K, 13970 kPa): 69.06 ± 3.1 J/K/mol | molar heat capacity at constant volume (306.15 K, 13973 kPa): 68.99 ± 3.1 J/K/mol | molar heat capacity at constant volume (307.15 K, 14620 kPa): 68.62 ± 3.1 J/K/mol and 68.33 ± 3.1 J/K/mol | molar heat capacity at constant volume (308.15 K, 15268 kPa): 69.71 ± 3.1 J/K/mol and 68.11 ± 3.1 J/K/mol | molar heat capacity at constant volume (309.15 K, 15915 kPa): 68.62 ± 3.1 J/K/mol | molar heat capacity at constant volume (309.15 K, 15917 kPa): 69.57 ± 3.1 J/K/mol | molar heat capacity at constant volume (310.15 K, 16562 kPa): 68.55 ± 3.1 J/K/mol | molar heat capacity at constant volume (310.15 K, 16564 kPa): 68.84 ± 3.1 J/K/mol | molar heat capacity at constant volume (311.15 K, 17208 kPa): 69.13 ± 3.1 J/K/mol | molar heat capacity at constant volume (311.15 K, 17212 kPa): 68.99 ± 3.1 J/K/mol | molar heat capacity at constant volume (312.15 K, 17853 kPa): 68.91 ± 3.1 J/K/mol | molar heat capacity at constant volume (312.15 K, 17859 kPa): 68.41 ± 3.1 J/K/mol | molar heat capacity at constant volume (313.15 K, 18499 kPa): 66.81 ± 3 J/K/mol | molar heat capacity at constant volume (313.15 K, 18506 kPa): 68.77 ± 3.1 J/K/mol | molar heat capacity at constant volume (314.15 K, 19144 kPa): 68.48 ± 3.1 J/K/mol | molar heat capacity at constant volume (314.15 K, 19153 kPa): 69.13 ± 3.1 J/K/mol | molar heat capacity at constant volume (315.15 K, 19788 kPa): 68.41 ± 3.1 J/K/mol | molar heat capacity at constant volume (315.15 K, 19798 kPa): 69.35 ± 3.1 J/K/mol | molar heat capacity at constant volume (316.15 K, 20432 kPa): 68.55 ± 3.1 J/K/mol | molar heat capacity at constant volume (316.15 K, 20443 kPa): 68.41 ± 3.1 J/K/mol | molar heat capacity at constant volume (317.15 K, 21075 kPa): 68.48 ± 3.1 J/K/mol | molar heat capacity at constant volume (317.15 K, 21088 kPa): 68.62 ± 3.1 J/K/mol | molar heat capacity at constant volume (318.15 K, 21719 kPa): 67.75 ± 3.1 J/K/mol | molar heat capacity at constant volume (318.15 K, 21733 kPa): 68.55 ± 3.1 J/K/mol | molar heat capacity at constant volume (319.15 K, 22362 kPa): 68.33 ± 3.1 J/K/mol | molar heat capacity at constant volume (319.15 K, 22377 kPa): 67.9 ± 3.1 J/K/mol | molar heat capacity at constant volume (320.15 K, 23005 kPa): 69.71 ± 3.1 J/K/mol | molar heat capacity at constant volume (320.15 K, 23021 kPa): 69.2 ± 3.1 J/K/mol | molar heat capacity at constant volume (321.15 K, 23648 kPa): 67.1 ± 3.1 J/K/mol | molar heat capacity at constant volume (321.15 K, 23665 kPa): 68.33 ± 3.1 J/K/mol | molar heat capacity at constant volume (322.15 K, 24289 kPa): 70.15 ± 3.2 J/K/mol | molar heat capacity at constant volume (322.15 K, 24307 kPa): 68.41 ± 3.1 J/K/mol | molar heat capacity at constant volume (323.15 K, 24930 kPa): 68.41 ± 3.1 J/K/mol | molar heat capacity at constant volume (323.15 K, 24949 kPa): 69.71 ± 3.1 J/K/mol | molar heat capacity at constant volume (324.15 K, 25571 kPa): 68.77 ± 3.1 J/K/mol | molar heat capacity at constant volume (324.15 K, 25590 kPa): 68.04 ± 3.1 J/K/mol | molar heat capacity at constant volume (325.15 K, 26210 kPa): 67.61 ± 3.1 J/K/mol | molar heat capacity at constant volume (325.15 K, 26231 kPa): 68.41 ± 3.1 J/K/mol | molar heat capacity at constant volume (326.15 K, 26850 kPa): 68.62 ± 3.1 J/K/mol | molar heat capacity at constant volume (326.15 K, 26871 kPa): 68.11 ± 3.1 J/K/mol | molar heat capacity at constant volume (327.15 K, 27488 kPa): 68.55 ± 3.1 J/K/mol | molar heat capacity at constant volume (327.15 K, 27511 kPa): 67.75 ± 3.1 J/K/mol | molar heat capacity at constant volume (328.15 K, 28127 kPa): 68.62 ± 3.1 J/K/mol | molar heat capacity at constant volume (328.15 K, 28150 kPa): 68.19 ± 3.1 J/K/mol | molar heat capacity at constant volume (329.15 K, 5865 kPa): 70.22 ± 3.2 J/K/mol | molar heat capacity at constant volume (329.15 K, 5904 kPa): 72.11 ± 3.3 J/K/mol | molar heat capacity at constant volume (329.15 K, 28764 kPa): 69.13 ± 3.1 J/K/mol | molar heat capacity at constant volume (329.15 K, 28790 kPa): 68.62 ± 3.1 J/K/mol | molar heat capacity at constant volume (330.15 K, 6231 kPa): 73.78 ± 3.5 J/K/mol | molar heat capacity at constant volume (330.15 K, 6255 kPa): 72.33 ± 3.3 J/K/mol | molar heat capacity at constant volume (330.15 K, 6269 kPa): 69.13 ± 3.3 J/K/mol | molar heat capacity at constant volume (330.15 K, 29402 kPa): 68.04 ± 3.1 J/K/mol | molar heat capacity at constant volume (330.15 K, 29426 kPa): 67.97 ± 3.1 J/K/mol | molar heat capacity at constant volume (331.15 K, 6598 kPa): 70.66 ± 3.2 J/K/mol | molar heat capacity at constant volume (331.15 K, 6620 kPa): 71.09 ± 3.2 J/K/mol | molar heat capacity at constant volume (331.15 K, 6635 kPa): 70.15 ± 3.2 J/K/mol | molar heat capacity at constant volume (331.15 K, 30065 kPa): 69.93 ± 3.1 J/K/mol | molar heat capacity at constant volume (332.15 K, 6965 kPa): 73.2 ± 3.3 J/K/mol | molar heat capacity at constant volume (332.15 K, 6987 kPa): 73.28 ± 3.3 J/K/mol
